Measured values reported in patent publication US6159940A, “Method for modulating hemopoiesis” (Immunotech Developments Inc., priority 1999, dated 2000).
Where a SMILES comes first, the peptide text is derived from it.

Tests used:
[1] = system: Thymoma EL-4 cells; experiment: Thymoma EL-4 cells incubated with peptide and oxyurea, transplanted to mice: tumor growth and survival; type: in vivo, C57B1 mice
Experimental: The Thymoma EL-4 cells were extracted from the abdomen cavity of C57B1 mice at the 7th day after transplantation. The suspension was washed by centrifugation in the medium RPMI. Then the cells were resuspended in the growth medium (RPMI+10% of embryo serum+0.1% penicillin/streptomycin) and were split in culture flasks 5 ml each ([…] per flask). 2 mg of the preparation were added (20 μl) to each probe. After 18 hours of incubation (37 degrees Celsius CO2), OU was added to the half of probes (1 mg per 5 ml). Incubation was done for 1 more hour in the same conditions and then cells were washed out by centrifugation in the medium RPMI. The precipitated cells were resuspended in calculation 1 ml per 0.2 ml of RPMI medium and then transplanted to the mice C57B1 under the back skin.
The taking of the measurements of the size of the tumor was started after the knot became visible. The tumor was measured every day until it was impossible to measure. The survival ability of the mice was examined during 60 days after transplantation. Mice that survived after this period were considered to be cured. Each experimental group consisted of 6 animals.

[2] = system: CFU-S-8 and CFU-S-12; experiment: Cytostatic (Cytosine-Arabinoside)-induced cytopenia: karyocytes, CFU-S-8, CFU-S-12 in bone marrow; type: in vivo, mice; details: donor bone marrow; CA 20 mg/kg i.p. once; N 10 μg/kg once daily, three injections
Experimental: Used as a cytostatic, Cytosine-Arabinoside (CA) was intraperitoneally injected to donor mice once in the dose of 20 mg/kg. The peptide was given according to the following scheme: 10 μg/kg once daily, three injections starting from the first hour after CA. Intact mice received H-Ile-Glu-Trp-OH in the same doses and according to the same schedule. On day 8 after the cytostatic injection, determined were karyocyte count in the donor bone marrow and the content of hemopoietic progenitors of different polipotencies: committed CFU-S-8 and CFU-S-12. CFU-8 are committed stem cells which later undergo differentiation. CFU-12 are the polypotent cells, from which stem cells can be recruited (i.e. they maintain the pool of stem cells). This is a slowly proliferating cell population, mainly in G phase. That is why it is important to evaluate the effect of a preparation on the pools of both committed (CFU-8) and polypotent (CFU- 12) cells. To this end, bone marrow was extracted from donor's femoral bones and injected to lethally irradiated recipients. After the cell injections, every test group was divided into 2 subgroups: some animals were killed on day 8, the other on day 12. Spleens were taken out and the colonies were counted. The tests were carried out on 105 mice.

[3] = system: CFU-S; experiment: Spleen colony formation from RAMBS-treated bone marrow in lethally irradiated mice; type: in vivo, (CBA×C57BL)F1 female mice; details: RAMBS-treated bone marrow + preparation, lethally irradiated mice
From the text: (CBA×C57BL)F1 female mice (n=2500), 2-months old, weighing about 20 g, were used in the experiment.
As is known, there is a close relationship between T-cells and hemopoietic progenitors. It was shown that, along with colony-forming units of spleen (CFU-S), thymocytes participate in colony formation of spleens of irradiated mice by controlling proliferation of the hemopoietic progenitor cells. The fact was established in a test system, which allowed a selective removal of accessory T-cells from bone marrow with the help of rabbit antimouse brain antiserum (RAMBS) and their substitution with other factors. Aliquots (0.1 ml) of bone marrow suspension (2×10^7 cells), RAMBS, and medium 199 were mixed and incubated for 1 hour at 37° C. Then the cells were washed with centrifuging, resuspended and injected to lethally irradiated mice.
According to the aforesaid scheme, instead of thymocytes mice received the peptide, H-Ile-Glu-Trp-OH injections 30 minutes before the injections of RAMBS-treated bone marrow suspension.

[4] = 60 days after transplantation of treated EL-4 cells

**Q.** For NC(=O)NO [OU, oxyurea, reference compound], which “% of Survival” value [1, 4] is on record?
**A.** The value was 0%.

**Q.** What about the “Number of Survived Mice From 6” value [1, 4] of the same molecule?
**A.** Its value is 0/6.

**Q.** And the “delay in the tumor growth” value ([1]; intact tumor cells treated with OU (FIG. 3))?
**A.** The value was roughly 12 days.

**Q.** And the “increase in lifetime versus control” value ([1]; mice with Thymoma EL-4)?
**A.** Its value is 5 days.

**Q.** What does the source list for Nc1ccn([C@@H]2O[C@H](CO)[C@@H](O)[C@@H]2O)c(=O)n1 [CA, Cytosine-Arabinoside, reference compound]?
**A.** Day 8 COUNT CFU-S-8 [2]: 1270 ± 53; Day 8 COUNT CFU-S-12 [2]: 1244 ± 71; Day 8 COUNT Karyocytes [2]: 17.5 ± 0.8 × 10^6

**Q.** How did the “Average Colony Count” value [3] turn out when N[C@@H](CCC(=O)O)C(=O)N[C@@H](Cc1c[nH]c2ccccc12)C(=O)O [Thymogen, H-Glu-Trp-OH, reference compound] (H-Glu-Trp-OH) was run?
**A.** The value was 2.9+/-0.3.
